From the kinase profiling compilation of Christmann-Franck et al. (2016)

Legend:
Assay in all cases: KINOMEscan competition binding
Details in all cases: compound 10.0 µM
BMPR2 (human) = BMPR2 (human) (UniProt Q13873)
STK32C (human) = STK32C (human) (UniProt Q86UX6)
DCLK3 (human) = DCLK3 (human) (UniProt Q9C098)
[1] = tested on: ABL1 (human), P00519 [M351T]
CDK11B (human) = CDK11B (human) (UniProt P21127)
MAP2K3 (human) = MAP2K3 (human) (UniProt P46734)
PRKAA2 (human) = PRKAA2 (human) (UniProt P54646)
PRKAA2 (human), sequence (P54646 whole entry, looked up): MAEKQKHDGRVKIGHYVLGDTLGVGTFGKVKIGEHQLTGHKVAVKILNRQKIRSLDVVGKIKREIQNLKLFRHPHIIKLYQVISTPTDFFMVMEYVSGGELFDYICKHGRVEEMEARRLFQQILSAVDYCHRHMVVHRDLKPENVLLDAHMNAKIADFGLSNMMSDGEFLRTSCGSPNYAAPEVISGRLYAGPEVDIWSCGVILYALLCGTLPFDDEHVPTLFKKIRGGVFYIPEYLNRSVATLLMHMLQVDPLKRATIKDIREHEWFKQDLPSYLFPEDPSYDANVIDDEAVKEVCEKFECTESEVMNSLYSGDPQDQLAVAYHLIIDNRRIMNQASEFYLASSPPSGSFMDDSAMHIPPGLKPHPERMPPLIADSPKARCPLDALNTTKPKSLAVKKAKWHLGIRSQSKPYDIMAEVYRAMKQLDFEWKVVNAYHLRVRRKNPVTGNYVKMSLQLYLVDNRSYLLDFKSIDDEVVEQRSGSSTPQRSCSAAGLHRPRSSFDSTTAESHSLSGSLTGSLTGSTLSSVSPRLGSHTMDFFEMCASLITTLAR

CDK19 (human) = CDK19 (human) (UniProt Q9BWU1)
PRKD3 (human) = PRKD3 (human) (UniProt O94806)
FLT4 (human) = FLT4 (human) (UniProt P35916)
MAPK13 (human) = MAPK13 (human) (UniProt O15264)
MAPK13 (human), sequence (O15264 whole entry, looked up): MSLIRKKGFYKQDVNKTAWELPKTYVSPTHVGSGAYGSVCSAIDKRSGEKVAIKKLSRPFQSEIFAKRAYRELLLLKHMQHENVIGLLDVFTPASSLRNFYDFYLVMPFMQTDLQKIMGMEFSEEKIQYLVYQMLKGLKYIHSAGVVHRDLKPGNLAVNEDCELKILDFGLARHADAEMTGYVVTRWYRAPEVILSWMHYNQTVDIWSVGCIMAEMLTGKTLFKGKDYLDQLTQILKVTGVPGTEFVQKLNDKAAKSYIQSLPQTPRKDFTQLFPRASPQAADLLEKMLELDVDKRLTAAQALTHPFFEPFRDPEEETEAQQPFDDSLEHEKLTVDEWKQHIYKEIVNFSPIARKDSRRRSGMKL

MAPK10 (human) = MAPK10 (human) (UniProt P53779)
EPHA1 (human) = EPHA1 (human) (UniProt P21709)
AAK1 (human) = AAK1 (human) (UniProt Q2M2I8)
EPHA2 (human) = EPHA2 (human) (UniProt P29317)
EPHA5 (human) = EPHA5 (human) (UniProt P54756)
MUSK (human) = MUSK (human) (UniProt O15146)
MUSK (human), sequence (O15146 whole entry, looked up): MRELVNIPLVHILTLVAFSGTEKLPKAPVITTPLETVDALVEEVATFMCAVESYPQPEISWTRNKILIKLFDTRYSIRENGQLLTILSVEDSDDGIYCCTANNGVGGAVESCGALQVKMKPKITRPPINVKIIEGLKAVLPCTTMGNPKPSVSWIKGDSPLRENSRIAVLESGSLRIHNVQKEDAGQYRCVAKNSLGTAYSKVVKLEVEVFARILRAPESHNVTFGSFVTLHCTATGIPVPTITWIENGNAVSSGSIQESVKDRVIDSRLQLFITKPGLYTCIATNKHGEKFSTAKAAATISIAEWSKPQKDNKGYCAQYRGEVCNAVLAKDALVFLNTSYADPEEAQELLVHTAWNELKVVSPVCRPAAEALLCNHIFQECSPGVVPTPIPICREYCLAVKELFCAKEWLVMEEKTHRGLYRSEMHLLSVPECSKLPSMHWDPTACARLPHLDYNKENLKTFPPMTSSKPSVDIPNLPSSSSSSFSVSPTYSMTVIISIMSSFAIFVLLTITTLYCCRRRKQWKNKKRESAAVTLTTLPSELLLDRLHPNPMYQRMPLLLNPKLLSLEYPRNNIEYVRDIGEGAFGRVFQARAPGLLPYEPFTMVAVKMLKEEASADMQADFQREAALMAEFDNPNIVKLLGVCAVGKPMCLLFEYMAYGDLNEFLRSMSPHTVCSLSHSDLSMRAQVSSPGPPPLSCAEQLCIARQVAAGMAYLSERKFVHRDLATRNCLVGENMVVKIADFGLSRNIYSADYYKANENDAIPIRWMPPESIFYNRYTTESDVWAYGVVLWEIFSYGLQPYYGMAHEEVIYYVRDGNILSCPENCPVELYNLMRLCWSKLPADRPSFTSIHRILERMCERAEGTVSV

SRC (human) = SRC (human) (UniProt P12931)
SIK1 (human) = SIK1 (human) (UniProt P57059)
ACVR1B (human) = ACVR1B (human) (UniProt P36896)
ACVR1B (human), sequence (P36896 whole entry, looked up): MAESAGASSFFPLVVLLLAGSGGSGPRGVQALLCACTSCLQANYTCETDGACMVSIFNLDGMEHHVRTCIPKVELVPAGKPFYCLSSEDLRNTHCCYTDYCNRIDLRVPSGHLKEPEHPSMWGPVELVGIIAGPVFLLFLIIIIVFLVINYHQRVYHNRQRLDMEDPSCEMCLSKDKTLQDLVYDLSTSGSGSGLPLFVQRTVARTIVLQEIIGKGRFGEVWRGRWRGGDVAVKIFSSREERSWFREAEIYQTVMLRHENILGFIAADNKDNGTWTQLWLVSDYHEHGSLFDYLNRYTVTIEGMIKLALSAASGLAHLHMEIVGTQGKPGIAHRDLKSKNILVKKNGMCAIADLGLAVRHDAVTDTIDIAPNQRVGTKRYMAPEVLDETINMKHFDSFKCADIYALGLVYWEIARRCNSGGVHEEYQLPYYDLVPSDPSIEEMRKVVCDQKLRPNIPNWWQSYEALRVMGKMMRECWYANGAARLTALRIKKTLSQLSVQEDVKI

PHKG2 (human) = PHKG2 (human) (UniProt P15735)
AKT3 (human) = AKT3 (human) (UniProt Q9Y243)
ADCK4 (human) = ADCK4 (human) (UniProt Q96D53)
CAMK2G (human) = CAMK2G (human) (UniProt Q13555)
MERTK (human) = MERTK (human) (UniProt Q12866)
MINK1 (human) = MINK1 (human) (UniProt Q8N4C8)
EIF2AK2 (human) = EIF2AK2 (human) (UniProt P19525)
EIF2AK2 (human), sequence (P19525 whole entry, looked up): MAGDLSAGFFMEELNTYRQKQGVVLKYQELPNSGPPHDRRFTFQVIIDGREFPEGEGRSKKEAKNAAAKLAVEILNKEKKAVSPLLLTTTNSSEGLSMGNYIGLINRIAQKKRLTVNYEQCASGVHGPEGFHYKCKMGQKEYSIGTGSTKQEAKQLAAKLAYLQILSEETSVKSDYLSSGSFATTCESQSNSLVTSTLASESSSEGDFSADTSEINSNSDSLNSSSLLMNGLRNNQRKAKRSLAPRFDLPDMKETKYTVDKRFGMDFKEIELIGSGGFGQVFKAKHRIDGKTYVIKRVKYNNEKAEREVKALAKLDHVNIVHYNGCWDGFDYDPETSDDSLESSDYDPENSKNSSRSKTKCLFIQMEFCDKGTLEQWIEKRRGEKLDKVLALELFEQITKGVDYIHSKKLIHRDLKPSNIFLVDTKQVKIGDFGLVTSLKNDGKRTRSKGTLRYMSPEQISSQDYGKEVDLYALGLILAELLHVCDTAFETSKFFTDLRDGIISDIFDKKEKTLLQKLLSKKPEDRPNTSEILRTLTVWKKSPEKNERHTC

MAP2K1 (human) = MAP2K1 (human) (UniProt Q02750)
DAPK1 (human) = DAPK1 (human) (UniProt P53355)
FLT3 (human) = FLT3 (human) (UniProt P36888)
CSNK1D (human) = CSNK1D (human) (UniProt P48730)
RIPK1 (human) = RIPK1 (human) (UniProt Q13546)
RIPK1 (human), sequence (Q13546 whole entry, looked up): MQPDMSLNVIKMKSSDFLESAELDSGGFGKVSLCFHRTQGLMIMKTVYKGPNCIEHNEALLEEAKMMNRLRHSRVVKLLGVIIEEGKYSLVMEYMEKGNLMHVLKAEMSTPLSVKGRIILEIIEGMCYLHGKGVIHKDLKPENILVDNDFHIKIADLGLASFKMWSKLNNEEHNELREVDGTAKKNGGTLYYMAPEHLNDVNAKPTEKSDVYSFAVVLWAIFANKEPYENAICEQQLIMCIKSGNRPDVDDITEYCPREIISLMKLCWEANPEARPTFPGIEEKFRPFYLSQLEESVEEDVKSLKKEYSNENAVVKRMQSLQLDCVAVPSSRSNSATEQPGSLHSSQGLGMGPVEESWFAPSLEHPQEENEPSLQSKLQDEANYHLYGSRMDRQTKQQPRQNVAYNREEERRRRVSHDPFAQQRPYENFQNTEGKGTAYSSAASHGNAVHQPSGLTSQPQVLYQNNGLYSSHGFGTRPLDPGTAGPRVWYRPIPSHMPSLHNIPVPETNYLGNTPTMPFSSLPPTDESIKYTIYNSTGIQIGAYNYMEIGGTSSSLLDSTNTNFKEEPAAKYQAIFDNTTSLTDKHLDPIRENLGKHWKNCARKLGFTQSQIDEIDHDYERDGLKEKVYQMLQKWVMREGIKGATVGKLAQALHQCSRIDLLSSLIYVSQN

HCK (human) = HCK (human) (UniProt P08631)
HCK (human), sequence (P08631 whole entry, looked up): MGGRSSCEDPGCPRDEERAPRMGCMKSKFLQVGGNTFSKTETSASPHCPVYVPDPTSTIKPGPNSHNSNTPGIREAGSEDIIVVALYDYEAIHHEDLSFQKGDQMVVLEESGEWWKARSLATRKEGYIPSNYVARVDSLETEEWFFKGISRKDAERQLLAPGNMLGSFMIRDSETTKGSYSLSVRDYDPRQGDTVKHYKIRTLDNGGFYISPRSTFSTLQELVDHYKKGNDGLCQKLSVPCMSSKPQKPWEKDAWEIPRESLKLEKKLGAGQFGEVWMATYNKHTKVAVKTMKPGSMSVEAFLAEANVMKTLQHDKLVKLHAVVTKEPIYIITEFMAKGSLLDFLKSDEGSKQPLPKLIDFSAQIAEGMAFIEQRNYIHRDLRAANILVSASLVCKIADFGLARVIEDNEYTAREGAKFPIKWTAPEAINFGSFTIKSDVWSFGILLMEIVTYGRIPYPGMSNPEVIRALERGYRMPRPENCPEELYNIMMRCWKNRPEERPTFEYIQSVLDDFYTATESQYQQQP

STK3 (human) = STK3 (human) (UniProt Q13188)
STK3 (human), sequence (Q13188 whole entry, looked up): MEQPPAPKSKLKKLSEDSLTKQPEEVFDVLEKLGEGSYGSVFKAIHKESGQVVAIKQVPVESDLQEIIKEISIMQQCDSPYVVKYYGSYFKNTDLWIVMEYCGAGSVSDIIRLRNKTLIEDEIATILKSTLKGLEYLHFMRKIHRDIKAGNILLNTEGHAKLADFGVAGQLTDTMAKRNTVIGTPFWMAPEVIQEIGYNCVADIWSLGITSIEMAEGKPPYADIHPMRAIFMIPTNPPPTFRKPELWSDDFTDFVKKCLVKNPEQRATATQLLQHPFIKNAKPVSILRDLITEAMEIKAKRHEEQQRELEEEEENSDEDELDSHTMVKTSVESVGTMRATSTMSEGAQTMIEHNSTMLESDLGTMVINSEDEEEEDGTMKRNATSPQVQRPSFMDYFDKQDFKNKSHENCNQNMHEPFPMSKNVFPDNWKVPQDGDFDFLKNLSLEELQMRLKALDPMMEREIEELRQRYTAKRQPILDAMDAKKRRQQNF

TEC (human) = TEC (human) (UniProt P42680)
CHEK1 (human) = CHEK1 (human) (UniProt O14757)
CHEK1 (human), sequence (O14757 whole entry, looked up): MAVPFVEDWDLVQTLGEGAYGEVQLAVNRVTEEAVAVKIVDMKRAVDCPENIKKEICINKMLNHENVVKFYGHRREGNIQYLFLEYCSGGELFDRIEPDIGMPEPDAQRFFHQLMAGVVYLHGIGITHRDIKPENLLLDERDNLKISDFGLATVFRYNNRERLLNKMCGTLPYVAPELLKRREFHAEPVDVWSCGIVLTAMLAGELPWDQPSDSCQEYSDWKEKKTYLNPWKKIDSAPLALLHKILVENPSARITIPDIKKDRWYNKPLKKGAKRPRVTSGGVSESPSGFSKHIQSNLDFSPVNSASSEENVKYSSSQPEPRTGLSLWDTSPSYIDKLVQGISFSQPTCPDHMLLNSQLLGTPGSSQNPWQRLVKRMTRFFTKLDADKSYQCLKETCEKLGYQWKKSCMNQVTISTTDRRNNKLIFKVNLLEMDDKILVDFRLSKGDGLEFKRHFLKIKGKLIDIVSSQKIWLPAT

ITK (human) = ITK (human) (UniProt Q08881)
BMPR1B (human) = BMPR1B (human) (UniProt O00238)
YES1 (human) = YES1 (human) (UniProt P07947)
NEK1 (human) = NEK1 (human) (UniProt Q96PY6)

| Structure (SMILES) | kinase still bound, per cent of control (BMPR2 (human)) [%] | kinase still bound, per cent of control (STK32C (human)) [%] | kinase still bound, per cent of control (DCLK3 (human)) [%] | kinase still bound, per cent of control [1] [%] | kinase still bound, per cent of control (CDK11B (human)) [%] | kinase still bound, per cent of control (MAP2K3 (human)) [%] | kinase still bound, per cent of control (PRKAA2 (human)) [%] | kinase still bound, per cent of control (CDK19 (human)) [%] | kinase still bound, per cent of control (PRKD3 (human)) [%] | kinase still bound, per cent of control (FLT4 (human)) [%] | kinase still bound, per cent of control (MAPK13 (human)) [%] | kinase still bound, per cent of control (MAPK10 (human)) [%] | kinase still bound, per cent of control (EPHA1 (human)) [%] | kinase still bound, per cent of control (AAK1 (human)) [%] | kinase still bound, per cent of control (EPHA2 (human)) [%] | kinase still bound, per cent of control (EPHA5 (human)) [%] | kinase still bound, per cent of control (MUSK (human)) [%] | kinase still bound, per cent of control (SRC (human)) [%] | kinase still bound, per cent of control (SIK1 (human)) [%] | kinase still bound, per cent of control (ACVR1B (human)) [%] | other results |
| --- | --- | --- | --- | --- | --- | --- | --- | --- | --- | --- | --- | --- | --- | --- | --- | --- | --- | --- | --- | --- | --- |
| C=CC(=O)Nc1cccc(Nc2nc(N[C@H]3CC[C@H](N(C)C)CC3)nc3c2ncn3C(C)C)c1 | 79 | 98 | 86 | 71 | 100 | 77 | 100 | 100 | 80 | 58 | 94 | 100 | 72 | 45 | 60 | 76 | 84 | 4 | 85 | 87 | kinase still bound, per cent of control (PHKG2 (human)): 44%; kinase still bound, per cent of control (AKT3 (human)): 91%; kinase still bound, per cent of control (ADCK4 (human)): 94%; kinase still bound, per cent of control (CAMK2G (human)): 76%; kinase still bound, per cent of control (MERTK (human)): 16%; kinase still bound, per cent of control (MINK1 (human)): 27%; kinase still bound, per cent of control (EIF2AK2 (human)): 78%; kinase still bound, per cent of control (MAP2K1 (human)): 83%; kinase still bound, per cent of control (DAPK1 (human)): 29%; kinase still bound, per cent of control (FLT3 (human)): 2.6%; kinase still bound, per cent of control (CSNK1D (human)): 0.75%; kinase still bound, per cent of control (RIPK1 (human)): 100%; kinase still bound, per cent of control (HCK (human)): 27%; kinase still bound, per cent of control (STK3 (human)): 57%; kinase still bound, per cent of control (TEC (human)): 100%; kinase still bound, per cent of control (CHEK1 (human)): 87%; kinase still bound, per cent of control (ITK (human)): 65%; kinase still bound, per cent of control (BMPR1B (human)): 31%; kinase still bound, per cent of control (YES1 (human)): 23%; kinase still bound, per cent of control (NEK1 (human)): 100% |
| Nc1ccc(-c2ccc3ncc4ccc(=O)n(-c5cccc(C(F)(F)F)c5)c4c3c2)cn1 | 100 | 100 | 100 | 100 | 100 | 66 | 95 | 100 | 100 | 85 | 48 | 78 | 93 | 71 | 99 | 100 | 100 | 100 | 79 | 96 | kinase still bound, per cent of control (PHKG2 (human)): 100%; kinase still bound, per cent of control (AKT3 (human)): 100%; kinase still bound, per cent of control (ADCK4 (human)): 77%; kinase still bound, per cent of control (CAMK2G (human)): 95%; kinase still bound, per cent of control (MERTK (human)): 87%; kinase still bound, per cent of control (MINK1 (human)): 56%; kinase still bound, per cent of control (EIF2AK2 (human)): 70%; kinase still bound, per cent of control (MAP2K1 (human)): 100%; kinase still bound, per cent of control (DAPK1 (human)): 91%; kinase still bound, per cent of control (FLT3 (human)): 12%; kinase still bound, per cent of control (CSNK1D (human)): 63%; kinase still bound, per cent of control (RIPK1 (human)): 100%; kinase still bound, per cent of control (HCK (human)): 100%; kinase still bound, per cent of control (STK3 (human)): 63%; kinase still bound, per cent of control (TEC (human)): 100%; kinase still bound, per cent of control (CHEK1 (human)): 86%; kinase still bound, per cent of control (ITK (human)): 100%; kinase still bound, per cent of control (BMPR1B (human)): 86%; kinase still bound, per cent of control (YES1 (human)): 100%; kinase still bound, per cent of control (NEK1 (human)): 87% |
